Measured values taken from patent US9611230B2, “1,3,4-oxadiazole benzoic acid compounds and their use for nonsense suppression and the treatment of disease” (PTC Therapeutics, Inc., priority 2004, dated 2017).

## Cc1cccc(-c2cnc(-c3ccc(C(=O)O)cc3)o2)c1 [Compound 632]
  melting point: 248 to 249 °C

## CN(C)c1ccc(-c2nnc(-c3ccccc3C(=O)O)o2)cc1 [Compound 606]
  melting point: 197 to 200 °C

## O=C(O)c1cccc(-c2nnc(-c3cccc4[nH]ccc34)o2)c1 [Compound 318]
  melting point: > 310 °C

## O=C(O)c1ccc(-c2ncc(C#Cc3ccccc3)o2)cc1 [Compound 651]
  melting point: 251 to 253 °C

## O=C(O)c1cccc(-c2ncc(-c3cccc(OC(F)(F)F)c3)o2)c1 [Compound 587]
  melting point: 210 to 211 °C

## O=C(O)c1cccc(-c2cc(-c3ccc(C(F)(F)F)cc3)on2)c1 [Compound 574]
  melting point: 281 to 282 °C

## Cc1ccc(-c2n[nH]c(-c3cccc(C(=O)O)c3)n2)cc1 [Compound 457]
  melting point: > 300 °C

## O=C(O)c1cccc(-c2nc(-c3ccc(OC(F)(F)F)cc3)no2)c1 [Compound 511]
  melting point: 217 to 218 °C

## COc1ccc(-c2n[nH]c(-c3cccc(C(=O)O)c3)n2)cc1OC [Compound 460]
  melting point: 275 to 278 °C

## COc1ccc(-c2cnc(-c3ccc(C(=O)O)cc3)o2)cc1 [Compound 637]
  melting point: 249 to 251 °C

## CC(C)c1ccc(-c2cnc(-c3cccc(C(=O)O)c3)o2)cc1 [Compound No. 288, 3-[5-(4-isopropylphenyl)-oxazol-2-yl]benzoic acid]
  melting point: 150 to 153 °C

## O=C(O)c1ccc(-c2ncc(-c3ccc4c(c3)OCO4)o2)cc1 [Compound 557]
  melting point: 269 to 270 °C

## O=C(O)c1cccc(-c2nnc(-c3cc4ccccc4[nH]3)o2)c1 [Compound 315]
  melting point: > 310 °C

## O=C(O)c1ccc(-c2ncc(-c3ccc4c(c3)OCCO4)o2)cc1 [Compound 631]
  melting point: 308 to 309 °C

## O=C(O)c1cccc(-c2nc(-c3ccc(C(F)(F)F)cc3)no2)c1 [Compound 513]
  melting point: 249.5 to 251 °C

## O=C(O)c1cccc(-c2nc(-c3ccc(F)cc3)n[nH]2)c1 [Compound 426]
  melting point: > 310 °C

## O=C(O)c1cccc(-c2ncc(-c3ccccc3Cl)o2)c1 [Compound 582]
  melting point: 236 to 237 °C

## O=C(O)c1cccc(-c2cc(-c3ccc(Br)cc3F)on2)c1 [Compound 482]
  melting point: 283.5 to 285 °C

## CC(C)c1ccc(NC(=O)c2nnc(-c3ccc(C(=O)O)cc3)o2)cc1 [Compound 284]
  melting point: 282 to 291 °C

## O=C(O)c1cccc(-c2nc(-c3cccs3)n[nH]2)c1 [Compound 462]
  melting point: 282 to 285 °C

## CC(C)c1ccc(-c2nnc(-c3cccc(C(=O)[O-])c3)o2)cc1.[Na+] [Compound 626]
  melting point: 200 to 205 °C (dec.)

## CC(C)c1ccc(NC(=O)Nc2cccc(-c3nnc(-c4ccc(C(=O)O)cc4)o3)c2)cc1 [Compound No. 60, 4-(5-{3-[3-(4-isopropylphenyl)ureido]phenyl}-[1,3,4]oxadiazol-2-yl)benzoic acid]
  melting point: > 270 °C

## CC(C)c1ccc(-c2cc(-c3cccc(C(=O)O)c3)cs2)cc1 [Compound No. 348, 3-[5-(4-isopropylphenyl)thiophen-3-yl]benzoic acid]
  melting point: 208 to 209 °C

## Cc1cccc(-c2cnc(-c3cccc(C(=O)O)c3)o2)c1 [Compound 589]
  melting point: 194 to 195 °C

## Cc1ccc(S(=O)(=O)Nc2cccc(-c3nnc(-c4ccc(C(=O)O)cc4)o3)c2)cc1 [Compound 13, 4-{5-[3-(toluene-4-sulfonylamino)phenyl]-[1,3,4]oxadiazol-2-yl}benzoic acid]
  melting point: > 275 °C

## CC(C)c1ccc(-c2coc(-c3cccc(C(=O)O)c3)c2C(=O)O)cc1 [Compound No. 314, 2-(3-carboxyphenyl)-4-(4-isopropylphenyl)furan-3-carboxylic acid]
  melting point: 236 to 239 °C

## CC(C)c1cccc(-c2nnc(-c3ccc(C(=O)O)cc3)o2)c1 [Compound 7]
  melting point: 227 to 229 °C

## O=C(O)c1cccc(-c2ncc(-c3cccc(C(F)(F)F)c3)o2)c1 [Compound 585]
  melting point: 250 to 251.5 °C

## O=C(O)c1ccc(-c2nnc(-c3ccnc(Cl)c3)o2)cc1 [Compound 225]
  melting point: > 285 °C

## Cc1ccc(-c2noc(-c3cccc(C(=O)O)c3)n2)cc1 [Compound 512]
  melting point: 243 to 244 °C

## O=C(O)c1ccc(-c2cc(-c3ccc(F)cc3F)no2)cc1 [Compound 538]
  melting point: 324 to 326 °C

## O=C(O)c1ccc(-c2ncc(-c3ccc(OC(F)(F)F)cc3)o2)cc1 [Compound 546]
  melting point: 222 to 224 °C

## CC(C)(C)c1ccc(-c2cnc(-c3ccc(C(=O)O)cc3)o2)cc1 [Compound 636]
  melting point: 258 to 259 °C

## CC(C)c1ccc(-c2nc(-c3cccc(C(=O)O)c3)co2)cc1 [Compound No. 313, 3-[2-(4-isopropylphenyl)-oxazol-4-yl]benzoic acid]
  melting point: 236 to 239 °C

## CN(C)c1ccccc1-c1nnc(-c2ccccc2C(=O)O)o1 [Compound 610]
  melting point: 180 to 183 °C

## CCc1ccc(-c2cnc(-c3ccc(C(=O)O)cc3)o2)cc1 [Compound 634]
  melting point: 233 to 234 °C

## O=C(O)c1ccc(-c2ncc(-c3cccc(O)c3)o2)cc1 [Compound 648]
  melting point: 291 to 292 °C

## O=C(O)c1cccc(-c2nc(-c3ccc(Br)cc3)n[nH]2)c1 [Compound 423]
  melting point: 309 to 311 °C

## CN(C)c1cccc(-c2nnc(-c3cccc(C(=O)O)c3)o2)c1 [Compound 2]
  melting point: 187 to 189 °C

## CN(C)c1ccc(Cc2nnc(-c3cccc(C(=O)O)c3)o2)cc1 [Compound 85]
  melting point: 220 to 222 °C

## O=C(O)c1cccc(-c2nnc(-c3c[nH]c4ccccc34)o2)c1 [Compound 319]
  melting point: 304 to 320 °C

## COc1ccc(-c2cc(-c3ccc(C(=O)O)cc3)no2)cc1 [Compound 532]
  melting point: 298 to 300 °C

## CC(C)c1ccc(-c2ncc(-c3cccc(C(=O)O)c3)o2)cc1 [Compound No. 320, 3-[2-(4-isopropylphenyl)-oxazol-5-yl]-benzoic acid]
  melting point: 193 to 195 °C

## CC(C)c1ccc(-c2csc(-c3cccc(C(=O)O)c3)c2)cc1 [Compound No. 327, 3-[4-(4-isopropylphenyl)-thiophen-2-yl]-benzoic acid]
  melting point: 220 to 222 °C

## CC(C)c1ccc(-c2cnc(-c3cccc(C(=O)O)c3)[nH]2)cc1 [Compound No. 277, 3-[5-(4-isopropylphenyl)-1H-imidazol-2-yl]benzoic acid]
  melting point: 296 to 298 °C

## Cc1ccc(-c2cc(-c3cccc(C(=O)O)c3)on2)cc1 [Compound 505]
  melting point: 253 to 254 °C

## CN(C)c1ccc(-c2nnc(-c3cccc(C(=O)O)c3)o2)cn1 [Compound 223]
  melting point: 272 to 274 °C

## O=C(O)c1cccc(-c2nnc(-c3ccc(Cl)nc3Cl)o2)c1 [Compound 272]
  melting point: 205 to 208 °C

## COc1cccc(-c2cc(-c3cccc(C(=O)O)c3)n[nH]2)c1 [Compound 551]
  melting point: 238 to 239 °C

## Cc1ccccc1-c1cnc(-c2cccc(C(=O)O)c2)o1 [Compound 588]
  melting point: 207 to 208 °C

## O=C(O)c1cccc(-c2cc(-c3ccc(F)cc3F)on2)c1 [Compound 478]
  melting point: 260 to 262 °C

## CCOc1ccc(-c2cnc(-c3ccc(C(=O)O)cc3)o2)cc1 [Compound 638]
  melting point: 245 to 246 °C
